Assay results reported in US20020065219A1, “Water soluble thiazolyl peptide derivatives” (priority 2000, published 2002).
Values after ≈ are worked out from the molar mass of the structure shown. Like-named read-outs stand apart in the source and are kept apart here.

Assays:
Experiment in all cases: MIC, broth micro dilution assay (NCCLS)
Assay type in all cases: cell-based
[1] = test system: Staphylococcus aureus A15090
[2] = test system: Enterococcus faecalis A20688
[3] = test system: Streptococcus pneumoniae A28272
[4] = Mueller-Hinton medium, 35° C., 18 hours
[5] = 50% Mueller-Hinton medium and 50% Todd Hewitt medium, 35° C., 18 hours

Compound | MIC (μg/mL) against Staphylococcus aureus A15090 [1, 4] [µg/mL] | MIC (μg/mL) against Enterococcus faecalis A20688 [2, 4] | MIC (μg/mL) against Streptococcus pneumoniae A28272 [3, 5] [µg/mL] | MIC (μg/mL) against Staphylococcus aureus A15090 [1] [µg/mL] | MIC (μg/mL) against Enterococcus faecalis A20688 [2] [µg/mL] | MIC (μg/mL) against Streptococcus pneumoniae A28272 [3] [µg/mL]
CO/C(C)=C1/NC(=O)C(C(C)O)NC(=O)c2csc(n2)-c2cc(O)c(-c3nc(C(=O)NC(CSCC(=O)OCc4ccccc4)C(N)=O)cs3)nc2-c2csc(n2)C2COC(=O)c3c4c5c(cccc5n3O)COC(=O)C(O[C@H]3C[C@](C)(O)[C@H](N(C)C)[C@H](C)O3)C(OC4)C(NC(=O)c3csc1n3)c1nc(cs1)C(=O)N2 (stereo partly drawn) [Example 34] | 1.0 (≈ 0.617 µM) | 1.0 µg/mL (≈ 0.617 µM) | 0.001 (≈ 0.000617 µM) |  |  | 
CCOC(=O)CN1CCN(CC(NC(=O)c2csc(-c3nc4c(cc3O)-c3nc(cs3)C(=O)NC(C(C)O)C(=O)N/C(=C(\C)OC)c3nc(cs3)C(=O)NC3c5nc(cs5)C(=O)NC(COC(=O)c5c6c7c(cccc7n5O)COC(=O)C(O[C@H]5C[C@](C)(O)[C@H](N(C)C)[C@H](C)O5)C3OC6)c3nc-4cs3)n2)C(N)=O)CC1 (stereo partly drawn) [Example 36] | 0.06 (≈ 0.0373 µM) | 0.25 µg/mL (≈ 0.155 µM) | 0.007 (≈ 0.00435 µM) |  |  | 
COC(C)=C1NC(=O)C(C(C)O)NC(=O)c2csc(n2)-c2cc(O)c(-c3nc(C(=O)NC(CN4CCC(O)C4)C(N)=O)cs3)nc2-c2csc(n2)C2COC(=O)c3c4c5c(cccc5n3O)COC(=O)C(OC3CC(C)(O)C(N(C)C)C(C)O3)C(OC4)C(NC(=O)c3csc1n3)c1nc(cs1)C(=O)N2 (stereo not drawn) [Example 37] | 0.06 (≈ 0.0394 µM) | 0.125 µg/mL (≈ 0.082 µM) | 0.007 (≈ 0.00459 µM) |  |  | 
CO/C(C)=C1/NC(=O)C(C(C)O)NC(=O)c2csc(n2)-c2cc(O)c(-c3nc(C(=O)NC(CN4CCN(CC(=O)O)CC4)C(N)=O)cs3)nc2-c2csc(n2)C2COC(=O)c3c4c5c(cccc5n3O)COC(=O)C(O[C@H]3C[C@](C)(O)[C@H](N(C)C)[C@H](C)O3)C(OC4)C(NC(=O)c3csc1n3)c1nc(cs1)C(=O)N2 (stereo partly drawn) [Example 39] | 1.0 (≈ 0.632 µM) | 1.0 µg/mL (≈ 0.632 µM) | 0.03 (≈ 0.019 µM) |  |  | 
CO/C(C)=C1/NC(=O)C(C(C)O)NC(=O)c2csc(n2)-c2cc(O)c(-c3nc(C(=O)NC(CSCCC(=O)O)C(N)=O)cs3)nc2-c2csc(n2)C2COC(=O)c3c4c5c(cccc5n3O)COC(=O)C(O[C@H]3C[C@](C)(O)[C@H](N(C)C)[C@H](C)O3)C(OC4)C(NC(=O)c3csc1n3)c1nc(cs1)C(=O)N2 (stereo partly drawn) [Example 40] | 1.0 (≈ 0.648 µM) | (4.0) μg/mL | 0.03 (≈ 0.0194 µM) |  |  | 
CO/C(C)=C1/NC(=O)C(C(C)O)NC(=O)c2csc(n2)-c2cc(O)c(-c3nc(C(=O)NC(CN(C)CCCn4ccnc4)C(N)=O)cs3)nc2-c2csc(n2)C2COC(=O)c3c4c5c(cccc5n3O)COC(=O)C(O[C@H]3C[C@](C)(O)[C@H](N(C)C)[C@H](C)O3)C(OC4)C(NC(=O)c3csc1n3)c1nc(cs1)C(=O)N2 (stereo partly drawn) [Example 41] | 0.5 (≈ 0.317 µM) | 0.5 µg/mL (≈ 0.317 µM) | 0.125 (≈ 0.0793 µM) |  |  | 
CO/C(C)=C1/NC(=O)C(C(C)O)NC(=O)c2csc(n2)-c2cc(O)c(-c3nc(C(=O)NC(CSC(CC(=O)O)C(=O)O)C(N)=O)cs3)nc2-c2csc(n2)C2COC(=O)c3c4c5c(cccc5n3O)COC(=O)C(O[C@H]3C[C@](C)(O)[C@H](N(C)C)[C@H](C)O3)C(OC4)C(NC(=O)c3csc1n3)c1nc(cs1)C(=O)N2 (stereo partly drawn) [Example 42] | 4.0 (≈ 2.52 µM) | 4.0 µg/mL (≈ 2.52 µM) | 0.25 (≈ 0.157 µM) |  |  | 
COC(C)=C1NC(=O)C(C(C)O)NC(=O)c2csc(n2)-c2cc(O)c(-c3nc(C(=O)NC(CSCC(NC(C)=O)C(=O)O)C(N)=O)cs3)nc2-c2csc(n2)C2COC(=O)c3c4c5c(cccc5n3O)COC(=O)C(OC3CC(C)(O)C(N(C)C)C(C)O3)C(OC4)C(NC(=O)c3csc1n3)c1nc(cs1)C(=O)N2 (stereo not drawn) [Example 43] | 2.0 (≈ 1.25 µM) | 8.0 µg/mL (≈ 5 µM) | 0.125 (≈ 0.0781 µM) |  |  | 
COC(C)=C1NC(=O)C(C(C)O)NC(=O)c2csc(n2)-c2cc(O)c(-c3nc(C(=O)NC(CSCC4NC(=O)NC4=O)C(N)=O)cs3)nc2-c2csc(n2)C2COC(=O)c3c4c5c(cccc5n3O)COC(=O)C(OC3CC(C)(O)C(N(C)C)C(C)O3)C(OC4)C(NC(=O)c3csc1n3)c1nc(cs1)C(=O)N2 (stereo not drawn) [Example 45] | 4.0 (≈ 2.53 µM) | 128 µg/mL (≈ 80.8 µM) | 0.03 (≈ 0.0189 µM) |  |  | 
CO/C(C)=C1/NC(=O)C(C(C)O)NC(=O)c2csc(n2)-c2cc(O)c(-c3nc(C(=O)NC(CSCCS(=O)(=O)O)C(N)=O)cs3)nc2-c2csc(n2)C2COC(=O)c3c4c5c(cccc5n3O)COC(=O)C(O[C@H]3C[C@](C)(O)[C@H](N(C)C)[C@H](C)O3)C(OC4)C(NC(=O)c3csc1n3)c1nc(cs1)C(=O)N2 (stereo partly drawn) [Example 46] | 4.0 (≈ 2.53 µM) | 128 µg/mL (≈ 81 µM) | 0.06 (≈ 0.038 µM) |  |  | 
CO/C(C)=C1/NC(=O)C(C(C)O)NC(=O)c2csc(n2)-c2cc(O)c(-c3nc(C(=O)NC(CSCCc4nnn[nH]4)C(N)=O)cs3)nc2-c2csc(n2)C2COC(=O)c3c4c5c(cccc5n3O)COC(=O)C(O[C@H]3C[C@](C)(O)[C@H](N(C)C)[C@H](C)O3)C(OC4)C(NC(=O)c3csc1n3)c1nc(cs1)C(=O)N2 (stereo partly drawn) [Example 47] | 2.0 (≈ 1.28 µM) | 32 µg/mL (≈ 20.4 µM) | 0.25 (≈ 0.159 µM) |  |  | 
CO/C(C)=C1/NC(=O)C(C(C)O)NC(=O)c2csc(n2)-c2cc(O)c(-c3nc(C(=O)NC(CN4CCN(c5ccccn5)CC4)C(N)=O)cs3)nc2-c2csc(n2)C2COC(=O)c3c4c5c(cccc5n3O)COC(=O)C(O[C@H]3C[C@](C)(O)[C@H](N(C)C)[C@H](C)O3)C(OC4)C(NC(=O)c3csc1n3)c1nc(cs1)C(=O)N2 (stereo partly drawn) [Example 48] |  |  |  | 0.125 (≈ 0.0781 µM) | 0.25 (≈ 0.156 µM) | 0.03 (≈ 0.0187 µM)
CO/C(C)=C1/NC(=O)C(C(C)O)NC(=O)c2csc(n2)-c2cc(O)c(-c3nc(C(=O)NC(CN4CCN(CCOCCO)CC4)C(N)=O)cs3)nc2-c2csc(n2)C2COC(=O)c3c4c5c(cccc5n3O)COC(=O)C(O[C@H]3C[C@](C)(O)[C@H](N(C)C)[C@H](C)O3)C(OC4)C(NC(=O)c3csc1n3)c1nc(cs1)C(=O)N2 (stereo partly drawn) [Example 49] | 0.5 (≈ 0.31 µM) | 2.0 µg/mL (≈ 1.24 µM) | 0.5 (≈ 0.31 µM) |  |  | 
